Measurements as given in ChEMBL document CHEMBL4699608, “Aliphatic amines are viable pro-drug moieties in phosphonoamidate drugs” (Bioorg Med Chem Lett, 2020).
Activity calls are given as the source filed them. No cut-off for these calls is given here.

What follows are compounds tested on D-423MG (assay: Cytotoxicity against human D423 cells with ENO1 deficient assessed as reduction in cell viability incubated for 5 days by crystal violet staining based spectrophotometry). Settings: 120 h.
Type: functional
`CC(C)OC(=O)C(C)NP(=O)(OCOC(=O)C(C)(C)C)C1CCCN(O)C1=O` (configuration not stated) gave an IC50 of 258 nM.
`CC(C)(C)C(=O)OCOP(=O)(NCc1cccc(F)c1)C1CCCN(O)C1=O` (configuration not stated) gave an IC50 of 103 nM.
In the case of `CC(C)(C)C(=O)OCOP(=O)(NCc1ccc(F)cc1)C1CCCN(O)C1=O` (configuration not stated), the IC50 is reported as 129 nM.
For `CC(C)(C)C(=O)OCOP(N)(=O)C1CCCN(O)C1=O` (configuration not stated), the IC50 was 62.6 nM.
Work on `CC(C)(C)C(=O)OCOP(=O)(NCc1ccc(F)cc1F)C1CCCN(O)C1=O` (configuration not stated) yielded an IC50 of 80.3 nM.
`O=C1C(P(=O)(O)NCC2CC2)CCCN1O` (configuration not stated) showed an IC50 of 8830 nM.
In the case of `CC(C)(C)C(=O)OCOP(=O)(NCc1ccc(F)c(F)c1)C1CCCN(O)C1=O` (configuration not stated), the IC50 is reported as 84.6 nM.
For `CC(C)(C)C(=O)OCOP(=O)(NC1CCC1)C1CCCN(O)C1=O` (configuration not stated), the IC50 was 121 nM.
With `CCCCCCCCCCCCNP(=O)(O)C1CCCN(O)C1=O` (configuration not stated) the IC50 was 24 nM.
`CC(C)(C)C(=O)OCOP(=O)(OCOC(=O)C(C)(C)C)C1CCCN(O)C1=O` (configuration not stated) gave an IC50 of 17.3 nM.
In the case of `CC(C)(C)C(=O)OCOP(=O)(NCc1ccccc1)C1CCCN(O)C1=O` (configuration not stated), the IC50 is reported as 244 nM.
`CC(C)(C)C(=O)OCOP(=O)(NCC1CCCCC1)C1CCCN(O)C1=O` (configuration not stated) was tested, and the IC50 was 81.1 nM.
`CNP(=O)(OCOC(=O)C(C)(C)C)C1CCCN(O)C1=O` (configuration not stated) was tested, and the IC50 was 115 nM.
`CC(C)(C)C(=O)OCOP(=O)(NCc1ccccc1F)C1CCCN(O)C1=O` (configuration not stated) showed an IC50 of 196 nM.

Each compound was assayed on D-423MG (assay: Cytotoxicity against human D423 cells with HINT1 deficient). Settings: not given.
Type: functional, cell-based
For `CC(C)(C)C(=O)OCOP(=O)(NCC1CC1)C1CCCN(O)C1=O` (configuration not stated), the Activity was “Active”.

What follows are compounds tested on D-423MG (assay: Cytotoxicity against human D423 cells with PAPSS1 deficient). Settings: not given.
Type: functional, cell-based
`CC(C)(C)C(=O)OCOP(=O)(NCC1CC1)C1CCCN(O)C1=O` (configuration not stated) was tested, and the Activity was “Active”.

The compounds below were run on D-423MG (assay: Cytotoxicity against human D423 cells with CES2 deficient). Settings: not given.
Type: functional, cell-based
In the case of `CC(C)(C)C(=O)OCOP(=O)(NCC1CC1)C1CCCN(O)C1=O` (configuration not stated), the Activity is reported as “Active”.
